Measured values reported in patent US9296720B2, “Carboxamide-substituted heteroaryl-pyrazoles and the use thereof” (AiCuris GmbH & Co. KG, priority 2011, dated 2016).

Key:
Assay type in all cases: cell-based
[1] = test system: HIV-1NL4-3 Wild Type; assay: Luminescence reduction assay, MT4 cells infected with HIV-1NL4-3 luciferase reporter virus, wild type; settings: Human immunodeficiency virus 1, MT4, MT4 cells, 2% FCS
Text: (§1) For this assay, HIV-1NL4-3 reporter viruses are used, which carry the luciferase164 gene (lu164) instead of the nef gene. The viruses are generated by transfection of 293T cells with the corresponding proviral pNL4-3 plasmid (Lipofectamine Reagent, Invitrogen, Karlsruhe, Germany). Starting from the proviral plasmid-DNA, viruses with defined resistance mutations in the reverse transcriptase gene are produced with the “QuikChange II XL Site-Directed Mutagenesis Kit” (Stratagene, Cedar Creek, Tex., USA). Among other things, the following mutations are generated: A98G, A98G-K103N-V108I, A98S, F227C, F227L, G190A, G190S, K101E, K101Q-K103N, K103N, K103N-F227L, K103N-G190A, K103N-G190S, K103N-M230L, K103N-N348I, K103N-P225H, K103N-V108I, K103N-V108I-P225H, K103N-V179F-Y181C, K103N-Y181C, K103N-Y181C-G190A, L100I, L100I-K103N, L100I-K103N-V179I-Y181C, L100I-K103N-Y181C, L234I, N348I, P225H, P236L, V106A, V106A-E138K, V106A-F227C, V106A-F227L, V106I, V106I-Y188L, V106M, V108I, V179F-Y181C, V179I, V179I-Y181C, Y181C, Y181C-G190A, Y181C-M230L, Y181I, Y188L. MT4 cells infected with these reporter viruses (NIH AIDS Research and Reference Reagent Program) secrete luciferase into the medium, which makes possible the luminometric quantification of the virus replication.
(§2) For the batch of a 96-well MTP, 3 million MT4 cells are pelletized, suspended in 1 ml of RPMI 1640 medium without phenol red (Invitrogen, Karlsruhe, Germany)/10% FCS/2 mmol of L-glutamine/1% Pen/Strep (Invitrogen, Karlsruhe, Germany), and incubated together with a suitable amount of the corresponding HIV-1NL4-3 reporter virus for 2 hours at 37° C. (pellet infection). Non-adsorbed viruses are then washed out with PBS, the infected cells are pelletized again, and suspended in 8 ml of RPM 11640 medium without phenol red/2% or 10% FCS/2 mmol of L-glutamine/1% Pen/Strep. Therefrom, 80 μl per well is pipetted into a white 96-well MTP in 20 μl of test substance in a suitable dilution. In order to avoid boundary effects, the edge wells of the MTP are not used for substance dilutions. The second vertical row of the MTP contains only infected cells (virus control), and the eleventh vertical row contains only non-infected cells (cell control) in each case in RPMI 1640 medium without phenol red/2% or 10% FCS/2 mmol of L-glutamine/1% Pen/Strep. The other wells of the MTP contain the compounds according to the invention in different concentrations starting from the third vertical row, from which dilution of the test substances is carried out 3^7 times in three steps up to the tenth vertical row. The test substances are dissolved in DMSO, whereby the DMSO final concentration in the test batch is ultimately 1%. The test batches are incubated for 5 days at 37° C./5% CO2, and are luminometrically evaluated after the addition of 15 μl of Lu164-buffer (65 mmol of NaCl, 300 mmol of MES, pH 5.8, 5 mmol of glutathione and 1:200 coelenterazine (5 mg/ml in 30 μM of glutathione/DMSO) (P.J.K. GmbH, Kleinblittersdorf, Germany)). In the virus control, the resulting values are in the range of 1 million RLUs (relative light units), and in the cell control, the resulting values are 300 to 400 RLUs. The EC50 values of the test substances are determined as the concentration of the treated infected cells, in which the virus replication measured in RLUs is 50% of the untreated infected cells.

[2] = test system: HIV-1NL4-3 K103N-Y181C; assay: Luminescence reduction assay, MT4 cells infected with HIV-1NL4-3 luciferase reporter virus, RT mutant K103N-Y181C; settings: Human immunodeficiency virus 1, MT4, read-out: EC50 (μM) MT4 Cells HIV-1NL4-3 K103N-Y181C 2% FCS, MT4 cells, HIV-1NL4-3 K103N-Y181C, 2% FCS
Text: as §1, §2

[3] = test system: HIV-1LAI Wild Type; assay: AlamarBlue viability assay, HIV-1LAI-infected MT4 cells; settings: Human immunodeficiency virus 1, MT4, MT4 cells, 10% FCS
Procedure: For the batch of a 96-well MTP, 3 million PBLs are pelletized, suspended in 1 ml of RPMI 1640 medium/10% FCS/2 mmol of L-glutamine/1% Pen/Strep, and incubated together with a suitable amount of HIV-1LA1 (NIH AIDS Research & Reference Reagent Program, Germantown, USA) for 2 hours at 37° C. (pellet infection). Non-adsorbed viruses are then washed out with PBS, the infected cells are pelletized again, and suspended in 18 ml of RPMI 1640 medium/10% FCS/2 mmol of L-glutamine/1% Pen/Strep/interleukin-2 (40 U/ml). Therefrom, 180 μl per well is pipetted into a white 96-well MTP in 20 μl of test substance in a suitable dilution. As an alternative, after preparation of the substance dilutions, the HIV is added by pipetting in the MTP together with the cells and is no longer washed out (supernatant infection). In order to avoid boundary effects, the edge wells of the MTP are not used for substance dilutions. The second vertical row of the MTP contains only infected cells (virus control), and the eleventh vertical row contains only non-infected cells (cell control) in each case in RPMI 1640 medium/10% FCS/2 mmol of L-glutamine/1% Pen/Strep/interleukin-2 (40 U/ml). The other wells of the MTP contain the compounds according to the invention in different concentrations starting from the third vertical row, from which dilution of the test substances is carried out 3^7 times in three steps up to the tenth vertical row. The test substances are dissolved in DMSO, whereby the DMSO final concentration in the test batch is ultimately 1%. The test batches are incubated at 37° C./5% CO2. After 5 and 7 days, in each case 50 μl of cell-free supernatant is drawn off from each well in order to determine the amount of p24 contained by means of p24 ELISA (HIV-1 p24^CA Antigen Capture Assay Kit, NCI-Frederick Cancer Research and Development Center, Frederick, USA). From the resulting values of the photometric analysis (450/620 nm), the EC50 values of the test substances are determined as the concentration of the treated infected cells, in which the amount of p24 is 50% of the untreated infected cells.
As an alternative, MT4 cells are used for testing test substances instead of PBLs. HIV-1LA1-infected MT4 cells (MOI 0.01, supernatant infection) are incubated according to the above-described pattern in RPMI 1640 medium with 2% or 10% FCS/2 mmol of L-glutamine/1% Pen/Strep in the presence of test substances for 5 days at 37° C./5% CO2 (20 μl of substance dilution and 80 μl of cells/virus per well). Then, 10 μl of AlamarBlue (Invitrogen, Karlsruhe, Germany) is added to each well, and MTPs are incubated for 3 hours at 37° C., before the fluorimetric analysis is done (544/590 nm). The resulting values are approximately 30,000 in the case of untreated, non-infected cells, and approximately 6,000 in the case of untreated infected cells. In the low concentration range, the EC50 values of the test substances are determined as the concentration of the treated infected cells, in which the fluorescence is 50% of the untreated non-infected cells (in each case relative to the values of the untreated infected cells). In addition, in the high concentration range, the CC50 values of the test substances are determined as the concentration of the treated infected cells, in which the fluorescence is 50% of the untreated, non-infected cells (in each case relative to the values of the untreated infected cells).

| Structure (SMILES) | EC50 [1] [µM] | EC50 [2] [µM] | EC50 [3] [µM] |
| --- | --- | --- | --- |
| O=C(c1cc(-c2cc(F)cc(OCC(F)(F)F)c2)n(-c2cccnc2)n1)N1CCSC1 [Example 72, {5-[3-Fluoro-5-(2,2,2-trifluoroethoxy)phenyl]-1-(pyridin-3-yl)-1H-pyrazol-3-yl}(1,3-thiazolidin-3-yl)methanone] | 0.038 | > 3.3 | 0.585 |
| O=C1CN(C(=O)c2cc(-c3cc(F)cc(Cl)c3)n(-c3cncc(Cl)c3)n2)CN1 [Example 9, 1-{[5-(3-Chloro-5-fluorophenyl)-1-(5-chloropyridin-3-yl)-1H-pyrazol-3-yl]carbonyl}imidazolidin-4-one] | 0.035 | 0.32 | 0.149 |
| O=C(c1cc(-c2cc(Br)cc(OC(F)(F)F)c2)n(-c2ccnc(C(F)(F)F)c2)n1)N1CCSC1 [Example 117, {5-[3-Bromo-5-(trifluoromethoxy)phenyl]-1-[2-(trifluoromethyl)pyridin-4-yl]-1H-pyrazol-3-yl}(1,3-thiazolidin-3-yl)methanone] | 1.28 | ≥ 3.3 | > 3.3 |
| Cc1cc(-n2nc(C(=O)N3CCNC(=O)C3)cc2-c2cc(F)cc(Cl)c2)ccn1 [Example 22, 4-{[5-(3-Chloro-5-fluorophenyl)-1-(2-methylpyridin-4-yl)-1H-pyrazol-3-yl]carbonyl}piperazin-2-one] | 0.375 | > 3.3 | 3.18 |
| COc1cc(Br)cc(-c2cc(C(=O)N3CNC(=O)C3)nn2-c2cccnc2)c1 [Example 94, 1-{[5-(3-Bromo-5-methoxyphenyl)-1-(pyridin-3-yl)-1H-pyrazol-3-yl]carbonyl}imidazolidin-4-one] | < 0.002 | 0.012 | 0.006 |
| O=C1CN(C(=O)c2cc(-c3cc(F)cc(Cl)c3)n(-c3cccnc3)n2)CCN1 [Example 4, 4-{[5-(3-Chloro-5-fluorophenyl)-1-(pyridin-3-yl)-1H-pyrazol-3-yl]carbonyl}piperazin-2-one] | 0.036 | 0.132 | 0.108 |
| O=C(c1cc(-c2cc(F)cc(Cl)c2)n(-c2ccnc(C(F)(F)F)c2)n1)N1CCS(=O)(=O)C1 [Example 20, {5-(3-Chloro-5-fluorophenyl)-1-[2-(trifluoromethyl)pyridin-4-yl]-1H-pyrazol-3-yl}(1,1-dioxido-1,3-thiazolidin-3-yl)methanone] | 0.162 | 1.39 | 1.46 |
| O=C1CN(C(=O)c2cc(-c3cnc(F)c(Cl)c3)n(-c3ccc(F)c(Cl)c3)n2)CN1 [Example 111, 1-{[1-(3-Chloro-4-fluorophenyl)-5-(5-chloro-6-fluoropyridin-3-yl)-1H-pyrazol-3-yl]carbonyl}imidazolidin-4-one] | 0.03 | 0.173 | 0.024 |
| O=C1CN(C(=O)c2cc(-c3cc(Br)cc(OC(F)(F)F)c3)n(-c3ccc(Cl)nc3)n2)CCN1 [Example 35, 4-({5-[3-Bromo-5-(trifluoromethoxy)phenyl]-1-(6-chloropyridin-3-yl)-1H-pyrazol-3-yl}carbonyl)piperazin-2-one] | 0.042 | 0.01 | 0.232 |
| O=C(c1cc(-c2cc(Br)cc(OC(F)(F)F)c2)n(-c2ccnc(C(F)(F)F)c2)n1)N1CCS(=O)(=O)C1 [Example 52, {5-[3-Bromo-5-(trifluoromethoxy)phenyl]-1-[2-(trifluoromethyl)pyridin-4-yl]-1H-pyrazol-3-yl}(1,1-dioxido-1,3-thiazolidin-3-yl)methanone] | 0.376 | 0.74 | > 3.3 |
| O=C(c1cc(-c2cc(F)cc(Cl)c2)n(-c2ccnc(C(F)(F)F)c2)n1)N1CCSC1 [Example 18] | 0.284 | > 3.3 | > 3.3 |
| O=C1CN(C(=O)c2cc(-c3cc(F)cc(Br)c3)n(-c3cccnc3)n2)CN1 [Example 90, 1-{[5-(3-Bromo-5-fluorophenyl)-1-(pyridin-3-yl)-1H-pyrazol-3-yl]carbonyl}imidazolidin-4-one] | 0.003 | 0.033 | 0.011 |
| O=C1CN(C(=O)c2cc(-c3cc(F)cc(Cl)c3)n(-c3cccnc3)n2)CN1 [Example 3, 1-{[5-(3-Chloro-5-fluorophenyl)-1-(pyridin-3-yl)-1H I-pyrazol-3-yl]carbonyl}imidazolidin-4-one] | 0.006 | 0.067 | 0.028 |
| O=C1CN(C(=O)c2cc(-c3cc(F)cc(OCC(F)(F)F)c3)n(-c3cccnc3)n2)CN1 [Example 70, 1-({5-[3-Fluoro-5-(2,2,2-trifluoroethoxy)phenyl]-1-(pyridin-3-yl)-1H-pyrazol-3-yl}carbonyl)imidazolidin-4-one] | < 0.002 | 0.315 | 0.034 |
